Data published in PubChem BioAssay AID248 (DTP/NCI, 2004).
Where “and” joins values, the source holds several entries; their conditions need not be identical. Identical values can stand only once. Toxic doses and inconclusive results are not listed. Cut-off read from the data, not from the text of the source: active = T/C of 150% or more; inactive = T/C below 125%.

System: L1210 leukemia ip in BDF1 mice, survival T/C
Experiment: NCI In Vivo Anticancer Drug Screen. Data for tumor model L1210 Leukemia (intraperitoneal) in B6D2F1 (BDF1) mice
Conditions: endpoint: mean survival time, higher = longer survival
Method in brief: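 Read-out is survival time, reported as the treated-group measurement over the vehicle-control measurement.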

[1] = dose: 100.0 mg/kg/injection, schedule: Q01DX001 (ip), vehicle: carboxymethylcellulose (CMC)
[2] = dose: 200.0 mg/kg/injection, schedule: Q01DX001 (ip), vehicle: carboxymethylcellulose (CMC)
[3] = dose: 400.0 mg/kg/injection, schedule: Q01DX001 (ip), vehicle: carboxymethylcellulose (CMC)
[4] = dose: 100.0 mg/kg/injection, schedule: Q04DX003 (ip), vehicle: Klucel (hydroxypropylcellulose) (HPC)
[5] = dose: 200.0 mg/kg/injection, schedule: Q04DX003 (ip), vehicle: Klucel (hydroxypropylcellulose) (HPC)
[6] = dose: 400.0 mg/kg/injection, schedule: Q04DX003 (ip), vehicle: Klucel (hydroxypropylcellulose) (HPC)
[7] = dose: 100.0 mg/kg/injection, schedule: Q01DX001 (ip), vehicle: Klucel (hydroxypropylcellulose) (HPC)
[8] = dose: 200.0 mg/kg/injection, schedule: Q01DX001 (ip), vehicle: Klucel (hydroxypropylcellulose) (HPC)
[9] = dose: 400.0 mg/kg/injection, schedule: Q01DX001 (ip), vehicle: Klucel (hydroxypropylcellulose) (HPC)
[10] = dose: 100.0 mg/kg/injection, schedule: Q04DX003 (ip), vehicle: saline with Tween-80
[11] = dose: 200.0 mg/kg/injection, schedule: Q04DX003 (ip), vehicle: saline with Tween-80
[12] = dose: 400.0 mg/kg/injection, schedule: Q04DX003 (ip), vehicle: saline with Tween-80

Measured: T/C

NC(N)=N/N=C(/CCC(=O)O)C(=O)O
inactive: dose: 15.0 mg/kg/injection, schedule: Q01DX Z (ip), vehicle: carboxymethylcellulose (CMC) 100 % of control | dose: 30.0 mg/kg/injection, schedule: Q01DX Z (ip), vehicle: carboxymethylcellulose (CMC) 107 % of control | dose: 60.0 mg/kg/injection, schedule: Q01DX Z (ip), vehicle: carboxymethylcellulose (CMC) 100 % of control and 104 % of control | dose: 60.0 mg/kg/injection, schedule: Q01DX Z (oral), vehicle: carboxymethylcellulose (CMC) 104 % of control | dose: 60.0 mg/kg/injection, schedule: Q01DX Z (oral), vehicle: saline 95 % of control | dose: 120.0 mg/kg/injection, schedule: Q01DX Z (ip), vehicle: carboxymethylcellulose (CMC) 101 % of control and 106 % of control | dose: 120.0 mg/kg/injection, schedule: Q01DX Z (oral), vehicle: carboxymethylcellulose (CMC) 98 % of control | dose: 120.0 mg/kg/injection, schedule: Q01DX Z (oral), vehicle: saline 96 % of control | dose: 240.0 mg/kg/injection, schedule: Q01DX Z (ip), vehicle: carboxymethylcellulose (CMC) 98 % of control | dose: 240.0 mg/kg/injection, schedule: Q01DX Z (oral), vehicle: carboxymethylcellulose (CMC) 107 % of control | dose: 240.0 mg/kg/injection, schedule: Q01DX Z (oral), vehicle: saline 98 % of control | dose: 480.0 mg/kg/injection, schedule: Q01DX Z (oral), vehicle: carboxymethylcellulose (CMC) 98 % of control | dose: 480.0 mg/kg/injection, schedule: Q01DX Z (oral), vehicle: saline 98 % of control | dose: 960.0 mg/kg/injection, schedule: Q01DX Z (oral), vehicle: carboxymethylcellulose (CMC) 98 % of control and 113 % of control | dose: 960.0 mg/kg/injection, schedule: Q01DX Z (oral), vehicle: saline 101 % of control

CC(C)(CO)NCc1ccc(O)cc1
inactive: [1] 96 % of control | [2] 100 % of control | [3] 96 % of control

Cc1ccc(C(c2ccc(C)cc2)C(Cl)(Cl)Cl)cc1
inactive: dose: 100.0 mg/kg/injection, schedule: Q01DX001 (ip), vehicle: saline sonified 93 % of control | dose: 200.0 mg/kg/injection, schedule: Q01DX001 (ip), vehicle: saline sonified 96 % of control | dose: 400.0 mg/kg/injection, schedule: Q01DX001 (ip), vehicle: saline sonified 88 % of control

CCOC(=O)C(Cc1c[nH]c2ccccc12)C(=O)OCC
inactive: [4] 96 % of control | [5] 94 % of control | [6] 98 % of control

O=C1CCc2c1cccc2[N+](=O)[O-]
inactive: dose: 100.0 mg/kg/injection, schedule: Q04DX002 (ip), vehicle: saline with Tween-80 102 % of control | dose: 200.0 mg/kg/injection, schedule: Q04DX002 (ip), vehicle: saline with Tween-80 102 % of control | dose: 400.0 mg/kg/injection, schedule: Q04DX002 (ip), vehicle: saline with Tween-80 102 % of control

CSc1nc(C)c(C)[n+](C)n1
inactive: dose: 75.0 mg/kg/injection, schedule: Q01DX001 (ip), vehicle: saline with Tween-80 115 % of control | dose: 150.0 mg/kg/injection, schedule: Q01DX001 (ip), vehicle: saline with Tween-80 117 % of control

CC1CN1P1(=O)OCC(C)([N+](=O)[O-])CO1 (stereo unspecified)
inactive: dose: 50.0 mg/kg/injection, schedule: Q01DX001 (ip), vehicle: carboxymethylcellulose (CMC) 106 % of control | [1] 110 % of control | [2] 104 % of control | [3] 112 % of control

O=C(O)c1ccsc1Cc1cccs1
inactive: [7] 101 % of control | dose: 100.0 mg/kg/injection, schedule: Q01DX009 (ip), vehicle: saline with Tween-80 97 % of control and 89 % of control | [8] 92 % of control | dose: 200.0 mg/kg/injection, schedule: Q01DX009 (ip), vehicle: saline with Tween-80 96 % of control and 100 % of control | [9] 106 % of control | dose: 400.0 mg/kg/injection, schedule: Q01DX009 (ip), vehicle: saline with Tween-80 93 % of control and 89 % of control

CC(=O)Nc1ccc(N=NN(C)C)cc1
inactive: dose: 1.56 mg/kg/injection, schedule: Q04DX003 (ip), vehicle: saline with Tween-80 97 % of control and 101 % of control | dose: 3.12 mg/kg/injection, schedule: Q01DX001 (ip), vehicle: saline with Tween-80 101 % of control | dose: 3.12 mg/kg/injection, schedule: Q04DX003 (ip), vehicle: saline with Tween-80 97 % of control and 98 % of control | dose: 6.25 mg/kg/injection, schedule: Q01DX001 (ip), vehicle: saline with Tween-80 107 % of control | dose: 6.25 mg/kg/injection, schedule: Q04DX003 (ip), vehicle: saline with Tween-80 101 % of control and 104 % of control | dose: 12.5 mg/kg/injection, schedule: Q01DX001 (ip), vehicle: saline with Tween-80 108 % of control | dose: 12.5 mg/kg/injection, schedule: Q04DX003 (ip), vehicle: saline with Tween-80 100 % of control and 102 % of control | dose: 25.0 mg/kg/injection, schedule: Q01DX001 (ip), vehicle: saline with Tween-80 113 % of control

O=N[O-].O=N[O-].O=N[O-].O=N[O-].O=N[O-].O=N[O-].[Co+3].[Co].[NH2-].[NH2-].[NH2-].[NH2-].[NH2-].[NH2-]
inactive: dose: 25.0 mg/kg/injection, schedule: Q04DX002 (ip), vehicle: saline with Tween-80 102 % of control | dose: 50.0 mg/kg/injection, schedule: Q04DX002 (ip), vehicle: saline with Tween-80 115 % of control

O=C(Nc1ccc(Nc2ccncc2)cc1)c1ccc([N+](=O)[O-])cc1
inactive: dose: 100.0 mg/kg/injection, schedule: Q01DX009 (ip), vehicle: Klucel (hydroxypropylcellulose) (HPC) 105 % of control | [4] 103 % of control | dose: 200.0 mg/kg/injection, schedule: Q01DX009 (ip), vehicle: Klucel (hydroxypropylcellulose) (HPC) 92 % of control | [5] 98 % of control | dose: 400.0 mg/kg/injection, schedule: Q01DX009 (ip), vehicle: Klucel (hydroxypropylcellulose) (HPC) 105 % of control | [6] 95 % of control

Clc1cccc2c(Cl)nccc12
inactive: [10] 100 % of control | [11] 94 % of control | [12] 96 % of control

C(Cc1ccccc1)=C1SCCCS1
inactive: [10] 99 % of control | [11] 96 % of control | [12] 96 % of control

Cc1cccc(N=Cc2cccc([N+](=O)[O-])c2)c1
inactive: dose: 50.0 mg/kg/injection, schedule: Q04DX003 (ip), vehicle: Klucel (hydroxypropylcellulose) (HPC) 98 % of control | [7] 100 % of control | [4] 98 % of control | [8] 94 % of control | [5] 98 % of control | [9] 92 % of control

C=CCc1cc(C)ccc1OC(=O)c1cc([N+](=O)[O-])cc([N+](=O)[O-])c1
inactive: dose: 100.0 mg/kg/injection, schedule: Q01DX001 (ip), vehicle: saline 102 % of control | dose: 200.0 mg/kg/injection, schedule: Q01DX001 (ip), vehicle: saline 98 % of control | dose: 400.0 mg/kg/injection, schedule: Q01DX001 (ip), vehicle: saline 98 % of control

O=S(=O)(O)c1ccc(Br)cc1
inactive: dose: 100.0 mg/kg/injection, schedule: Q01DX009 (ip), vehicle: saline 116 % of control | dose: 100.0 mg/kg/injection, schedule: Q04DX003 (ip), vehicle: saline 98 % of control | dose: 200.0 mg/kg/injection, schedule: Q01DX009 (ip), vehicle: saline 108 % of control | dose: 200.0 mg/kg/injection, schedule: Q04DX003 (ip), vehicle: saline 103 % of control | dose: 400.0 mg/kg/injection, schedule: Q01DX009 (ip), vehicle: saline 108 % of control | dose: 400.0 mg/kg/injection, schedule: Q04DX003 (ip), vehicle: saline 104 % of control
